Measurements as given in patent US20180103668A1, “CYCLOHEXANECARBOXYLIC ACIDS FOR SELECTIVE TASTE MASKING” (INTERNATIONAL FLAVORS & FRAGRANCES INC., priority 2015, published 2018).

How the values were obtained:
[1] = Sour taste-masking effect; details: 10 ppm in water; scale 0 to 10: 0=total masking, 2=intense masking, 5=moderate masking, 8=weak masking, 10=no masking; same in both lactic acid and citric acid
Protocol: (§1) A series of cyclohexanecarboxylic acid solutions in the following were prepared (10 ppm in water):
Lactic acid solution (0.09% by weight in water) and citric acid solution (0.07% by weight in water) were prepared and used, respectively, to evaluate the sour taste-masking effect of cyclohexanecarboxylic acids, which is expressed using an intensity scale of 0 to 10, where 0=total masking, 2=intense masking, 5=moderate masking, 8=weak masking and 10=no masking.

[2] = Bitter taste-masking effect; details: for Intensity Score (bitter taste-masking effect): 10 ppm in water, caffeine 0.07%, scale 0 to 10: 0=total masking, 2=intense masking, 5=moderate masking, 8=weak masking, 10=no masking; for bitter taste-masking effect (in words): 10 ppm, caffeine solution 0.07%
Protocol: as §1
Caffeine solution (0.07% by weight in water) was prepared and used to evaluate the bitter taste-masking effect of cyclohexanecarboxylic acids, which is expressed using an intensity scale of 0 to 10, where 0=total masking, 2=intense masking, 5=moderate masking, 8=weak masking and 10=no masking.

| Compound | Intensity Score (sour taste-masking effect) [1] | Intensity Score (bitter taste-masking effect) [2] | bitter taste-masking effect (in words) [2] |
| --- | --- | --- | --- |
| O=C(/C=C/c1ccc(O)c(O)c1)OC1C[C@@](O)(C(=O)O)C[C@@H](OC(=O)/C=C/c2ccc(O)c(O)c2)[C@@H]1O (stereo partly drawn) [Formula V, (1α,3R,4α,5R)-3,5-bis[[3-(3,4-dihydroxyphenyl)-1-oxo-2-propen-1-yl]oxy]-1,4-dihydroxy-cyclohexanecarboxylic acid] | 8 | 3 | particularly intense and lasting bitter taste-masking effect |
| O=C(/C=C/c1ccc(O)c(O)c1)O[C@H]1[C@H](O)C[C@](O)(C(=O)O)C[C@H]1OC(=O)/C=C/c1ccc(O)c(O)c1 [Formula VI, (1R,3R,4S,5R)-3,4-bis[[3-(3,4-dihydroxyphenyl)-1-oxo-2-propen-1-yl]oxy]-1,5-dihydroxy-cyclohexanecarboxylic acid] | 8 | 2 | particularly intense and lasting bitter taste-masking effect |
| O=C(/C=C/c1ccc(O)c(O)c1)O[C@@H]1[C@H](O)C[C@@](O)(C(=O)O)C[C@H]1OC(=O)/C=C/c1ccc(O)c(O)c1 [Formula IV, (1S,3R,4R,5R)-3,4-bis[[3-(3,4-dihydroxyphenyl)-1-oxo-2-propenyl]oxy]-1,5-dihydroxy-cyclohexanecarboxylic acid] | 8 | 2 | particularly intense and lasting bitter taste-masking effect |
